Measured values published in paper PMC10610134, “Verubulin (Azixa) Analogues with Increased Saturation: Synthesis, SAR and Encapsulation in Biocompatible Nanocontainers Based on Ca^2+ or Mg^2+ Cross-Linked Alginate” (Pharmaceuticals, 2023).
Like-named read-outs stand apart in the source and are kept apart here. Blank lines part the entries; values can stand above or below the compound they belong to.

Columns and labels:
[1] = tested on: human breast cancer cell line MCF7′; experiment: MTT cytotoxicity assay, MCF7′; type: cell-based; settings: read-out: IC50, nM MCF7′
Excerpt: (§1) The obtained series of verubulin analogues 2a–r (which also included three by-products isolated in the reactions according to Scheme 2) were initially evaluated for cytotoxicity against commonly used human breast cancer cell line MCF7′ (fast-growth subclone), human lung epithelial carcinoma cell line A549 and etiologically non-cancer immortalized lung fibroblast cell line VA13 (WI38 subline 2RA). Cytotoxicity against immortalized human embryonic kidney cell line HEK293T, characterized by a high growth rate, was also studied regarding cytotoxicity against non-cancerous fast-growth cells. A standard MTT assay was performed; verubulin (1) served as a positive reference. The data obtained are presented in Table 1 (for dose–response curves, see Supplementary Materials).
(§2) Human breast cancer cell line MCF7′ and human lung adenocarcinoma cell line A549 were kindly provided by Dr. S. Dmitriev (Lomonosov Moscow State University), immortalized human fibroblast cell line VA13 (WI38 subline 2RA) was kindly provided by Dr. M. Rubtsova (Lomonosov Moscow State University), human embryonic kidney HEK293T cell line was kindly provided by Dr. E. Knyazhanskaya (Lomonosov Moscow State University). MCF7′, VA13, A549 and HEK293T cell lines were maintained in DMEM/F-12 (Thermo Fisher Scientific, Waltham, MA, USA) culture medium containing 10% fetal bovine serum (Thermo Fisher Scientific, Waltham, MA, USA) and 50 μg/mL penicillin and 0.05 mg/mL streptomycin at 37 °C (Thermo Fisher Scientific, Waltham, MA, USA) in 5% CO2. Cells were maintained at 37 °C in a humidified MCO-18AC incubator (Sanyo, Tokyo, Japan) supplied with 5% CO2. Cell cultures were tested for the absence of mycoplasma and validated by STR.
(§3) The cytotoxicity of the substances was tested using the 3-(4,5-dimethylthiazol-2-yl)2,5-diphenyl tetrazolium bromide (MTT) assay with some modifications. A total of 2500 cells per well for the MCF7′, HEK293T, A549 cell lines or 4000 cells per well for the VA-13 cell line were plated out in 135 μL of DMEM-F12 media (Gibco, Thermo Fisher Scientific, Waltham, MA, USA) in a 96-well plate and incubated in the 5% CO2 incubator for the first 20 h without treatment. Then, 15.8 μL of media–DMSO solutions of tested substances (final DMSO concentrations in the media were 0.5% or less) was added to the cells (triplicate each) and cells were treated for 64 h with 0.023 mg/L–50 mg/L (eight dilutions) of compounds 2f,n,o,r; 1.14 μg/L–2.5 mg/L (eight dilutions) of compounds 2a,b,d,g,h,k,l,p,q; 57.2 ng/L–125 μg/L (eight dilutions) of compounds 2e,i,j; 22.9 ng/L–50 μg/L (eight dilutions) of compounds 1,2c,m. Doxorubicin was used as a control substance. Then, the MTT reagent (Paneco LLC, Moscow, Russia) was added to cells up to a final concentration of 0.5 g/L (10 × stock solution in PBS was used) and incubated for 2 h at 37 °C in the incubator, under an atmosphere of 5% CO2. Then, the MTT solution was discarded, and 140 μL of DMSO (PharmaMed LLC, Moscow, Russia) was added. The plates were swayed on a shaker (120 rpm) to dissolve the formazan. The absorbance was measured using a microplate reader (VICTOR X5 Light Plate Reader, PerkinElmer, Waltham, MA, USA) at a wavelength of 555 nm (in order to measure formazan concentration). The results were used to construct dose–response graphs and to estimate IC50 values (IC50 is the concentration resulting in half of the maximal cytotoxic effect) with GraphPad Prism V, GraphPadSoftware, Inc., San Diego, CA, USA.

[2] = tested on: human lung epithelial carcinoma cell line A549; experiment: MTT cytotoxicity assay, A549; type: cell-based; settings: read-out: IC50, nM A549
Excerpt: as §1, §2, §3

[3] = tested on: immortalized lung fibroblast cell line VA13 (WI38 subline 2RA); experiment: MTT cytotoxicity assay, VA13; type: cell-based; settings: Homo sapiens, read-out: IC50, nM VA13
Excerpt: as §1, §2, §3

[4] = tested on: immortalized human embryonic kidney cell line HEK293T; experiment: MTT cytotoxicity assay, HEK293T; type: cell-based; settings: HEK-293T, read-out: IC50, nM HEK293T
Excerpt: as §1, §2, §3

HCT116 cells = experiment: Apoptosis induction, Annexin V / 7-AAD flow cytometry; type: cell-based, human; settings: for Live (viable cells): human, 48 h
Protocol: Apoptosis is an important and active regulatory pathway of cell growth and proliferation. Annexin V is a calcium-dependent phospholipid-binding protein with a high affinity for phosphatidylserine (PS), a membrane component normally localized to the internal face of the cell membrane. Early in the apoptotic pathway, molecules of PS are translocated to the outer surface of the cell membrane where Annexin V can readily bind them.
After incubation, the cells were harvested by trypsinization, precipitated by centrifugation (3000 rpm), washed with cold PBS and recentrifuged. Aliquots of cells were processed as recommended in the Muse Annexin V& Dead Cell Kit (Luminex Corporation, Austin, TX, USA). The results were recorded on a Muse Cell Analyzer flow cytometer (Merck, Rahway, NJ, USA).

HCT116 cell line = experiment: MTT cytotoxicity towards HCT116; type: cell-based, human; settings: HCT-116
[5] = tested on: microtubules in carcinoma A549 cells; experiment: Immunofluorescent microscopy of microtubules; type: cell-based, human; settings: 24 h, A549
Protocol: Since verubulin is known to stimulate microtubule disassociation, we performed an immunofluorescent microscopy study to determine the response of microtubule dynamics in carcinoma A549 cells to the treatment with representative compounds 2b,c,e. […] Aberrant cell morphology—contraction and rounding (Figure 2A,B) or contraction and elongation (Figure 2C)—was also observed.
A549 cells were seeded on coverslips (treated with poly-l-lysine at a concentration of 33 mg/L for an hour). Compounds were added up to the corresponding concentration after 24 h attachment and growth of the cells. Then, cells were incubated 24 h.
The cells were fixed with methanol (precooled in liquid nitrogen for 20 min), no additional permeabilization was performed. To prevent non-specific binding, cells were incubated with 4% BSA in PBS for one hour. Then, a solution of mouse monoclonal antibodies against alpha-tubulin cross-linked with Alexa 488 fluoroform (Thermo Fisher Scientific, Waltham, MA, USA, 32-2588) at a concentration of 5 μg/mL in 1% BSA solution in PBS was added to the cells, and the slides were incubated at +5 °C in a water chamber for 24 h. After the end of the incubation time, the cells were washed several times with PBS buffer solution and fixed on a glass slide with Moviol. Next day, cells were imaged with a ZEISS LSM 900 (ZEISS Microscopy, GmbH, Germany) and images processed with ImageJ.

[6] = tested on: tubulin (Tb) and microtubule-associated proteins (MAPs) from mouse brains; experiment: Tubulin + MAP polymerization assay; type: biochemical; settings: GTP-dependent polymerization, read-out: IC50 of tubulin polymerization (initial rates, optical density at 355 nm)
A549 = settings: cited from earlier work
[7] = tested on: MCF7′, A549, VA13, HEK293T cell lines; experiment: MTT cytotoxicity, SAR statements over the cell line panel; type: cell-based, human; settings: pair A549/VA13
Excerpt: as §1, §3

MCF7/MCF10A = tested on: MCF7/MCF10A; design: method as in PMID 36802449; settings: cited from earlier work
[8] = HCT116, human colon carcinoma, read-out: IC50
[9] = 2 × IC50, 48 h, HCT116, listed as verubulin (1)

Compound: COc1ccc2c(c1)CCCN2c1nc(N)nc2c1CCCC2 [Compound 2j, 2-Amino-4-(6-methoxy-3,4-dihydroquinolin-1(2H)-yl)-5,6,7,8-tetrahydroquinazoline]
- IC50 ([1]; MCF7, 64 h treatment, MTT): 40.2 ± 7.8 nM
- IC50 ([2]; A549, 64 h treatment, MTT): 50.5 ± 11.1 nM
- IC50 ([3]; VA-13, 64 h treatment, MTT): 14.5 ± 3.9 nM
- IC50 ([4]; 64 h treatment, MTT): 28.9 ± 6.6 nM
- Early Apop. (Annexin V (+), 7-AAD (−)) (HCT116 cells; 2 × IC50, 48 h, HCT116): 56.4%
- Live (viable cells) (HCT116 cells): 30.81%
- IC50 (HCT116 cell line; [8]): 160 ± 30 nM

- IC50 [6]: 26000 ± 6000 nM
Compound: COc1ccc2c(c1)CCCN2c1nc(C)nc2c1CCCC2 [Compound 2e, 4-(6-Methoxy-3,4-dihydroquinolin-1(2H)-yl)-2-methyl-5,6,7,8-tetrahydroquinazoline]
- IC50 ([1]; MCF7, 64 h treatment, MTT): 12.6 ± 2.1 nM
- IC50 ([2]; A549, 64 h treatment, MTT): 13.5 ± 2.2 nM
- IC50 ([3]; VA-13, 64 h treatment, MTT): 7.1 ± 2 nM
- IC50 ([4]; 64 h treatment, MTT): 8.8 ± 2 nM
- effect on microtubules (MTs) ([5]; 10 μM): full depolymerization of MTs
- effect on microtubules ([5]; 5–10 μM): pronounced or complete disruption of microtubules
- IC50 (HCT116 cell line; [8]): 22 ± 5 nM

Compound: COc1ccc2c(c1)NC(=O)CN2c1nc(C)nc2c1CCC2 [Banerjee 2021]
- IC50 (A549): 4.5 nM

Compound: COc1ccc(N(C)c2nc(Cl)nc3c2CCCC3)cc1 [Tan 2023]
- IC50 (A549): 4.7 nM

Compound: COc1ccc(N(C)c2nc(Cl)nc3c2CCCC3)cc1 [Compound 2m, 2-Chloro-N-(4-methoxyphenyl)-N-methyl-5,6,7,8-tetrahydroquinazolin-4-amine]
- IC50 ([1]; MCF7, 64 h treatment, MTT): 3.3 ± 0.14 nM
- IC50 ([2]; A549, 64 h treatment, MTT): 3 ± 0.2 nM
- IC50 ([3]; VA-13, 64 h treatment, MTT): 1.3 ± 0.18 nM
- IC50 ([4]; 64 h treatment, MTT): 2.7 ± 0.12 nM
- selectivity towards tumor cells [7]: no selectivity
- Live (viable cells) (HCT116 cells): 52.58%
- IC50 (HCT116 cell line; [8]): 1.8 ± 0.1 nM
- selectivity in the pair MCF7/MCF10A (MCF7/MCF10A): selective

Compound: COc1ccc(N(C)c2nc(N)nc3c2CCCC3)cc1 [Compound 2i, N^4-(4-Methoxyphenyl)-N^4-methyl-5,6,7,8-tetrahydroquinazolinyl-2,4-diamine]
- IC50 ([1]; MCF7, 64 h treatment, MTT): 10.2 ± 1.5 nM
- IC50 ([2]; A549, 64 h treatment, MTT): 15 ± 2 nM
- IC50 ([3]; VA-13, 64 h treatment, MTT): 6 ± 1.5 nM
- IC50 ([4]; 64 h treatment, MTT): 9.6 ± 2.2 nM
- Early Apop. (Annexin V (+), 7-AAD (−)) (HCT116 cells; 2 × IC50, 48 h, HCT116): 46.3%
- Live (viable cells) (HCT116 cells): 43.99%
- IC50 (HCT116 cell line; [8]): 40 ± 10 nM

Compound: COc1ccc(N(C)c2nc(C)nc3ccccc23)cc1 [Compound 1, Verubulin]
- IC50 ([1]; MCF7, 64 h): 1.4 ± 0.05 nM
- IC50 ([2]; A549, 64 h): 1.1 ± 0.05 nM
- IC50 ([3]; VA-13, 64 h): 0.84 ± 0.06 nM
- IC50 ([4]; 64 h): 1 ± 0.02 nM
- selectivity towards tumor cells [7]: no selectivity
- IC50 [6]: 3100 ± 1100 nM
- apoptotic cells, early plus late (HCT116 cells; 2 × IC50, 48 h, HCT116): 49.3%
- Early Apop. (Annexin V (+), 7-AAD (−)) (HCT116 cells; [9]): 16.3%
- Late Apop./Dead (Annexin V (+), 7-AAD (+)) (HCT116 cells; [9]): 33%
- IC50 (HCT116 cell line; Homo sapiens): 3.2 ± 0.7 nM
- IC50 (A549): 5 nM

Compound: COc1ccc2c(c1)CCCN2c1nc(C)nc2ccccc12 [Wang 2013]
- GI50 (A549): 17.8 nM
